Results as given in PMC7559231, “Drug-induced cholestasis assay in primary hepatocytes” (MethodsX, 2020).
Where two headings read alike, the source gives them in different places.

Key:
[1] = design: method as in per compound in column References of Table 3 ([3], [24]-[44]); conditions: mean total peak plasma concentration in humans; ref per compound in Table 3 ([3], [24]-[44]); cited from earlier work
[2] = test system: sandwich-cultured human hepatocytes; conditions: SCHH, ref [6],[7], cited from earlier work; for DICI 24 h Mean: 24 h exposure; for DICI 48 h Mean: 48 h exposure
[3] = test system: sandwich-cultured human hepatocytes; test: Drug-induced cholestasis (DIC) assay: urea formation in sandwich-cultured human hepatocytes with and without the bile salt mixture; conditions: lowest in vitro concentration with DICI < 0.78 / Cmax,total; for DICI-based SM obtained with the ‘original’ LOAEL method 24 h: 24 h incubation; for DICI-based SM obtained with the ‘original’ LOAEL method 48 h: 48 h incubation
Source text: Drug-induced cholestasis (DIC) is a major cause of attrition during drug development and post-marketing withdrawal. Early detection of DIC is crucial for avoiding financial losses and improving drug safety. Preclinical assays for DIC detection often rely on evaluation of the test compound towards individual cellular targets such as their inhibitory potential towards the bile salt export pump (BSEP) by using BSEP membrane vesicles. However, the underlying mechanisms of DIC development are more complex involving multiple other transporters and nuclear receptors. A more comprehensive in vitro model such as sandwich-cultured human hepatocytes (SCHH) are more suited due to the presence of metabolizing enzymes and transporters relevant to bile salt disposition. The assay described here relies on changes in the ability of SCHH to produce urea from ammonia in the absence and presence of a (patho-)physiologically relevant bile salt mixture. Ammonia is detoxified in the hepatocyte by the urea cycle to form non-toxic urea. Measuring changes in urea production allows for the quantitative evaluation of the hepatocyte's biochemical and functional integrity. The colorimetric quantitation of urea formation is based on the reaction between urea and diacetylmonoxime.
By determining the ratio of urea formation after incubation with test compound in absence and in presence of the bile salt mixture, the DIC index (DICI) value can be calculated. […] It was previously established that a compound with a SM below 30 can be considered to display increased risk for causing cholestasis in the clinic.
If longer incubations are required (e.g. 48 h), the medium is changed again after 24 h (day 6) with fresh medium containing the same initial concentrations of test compound and bile salts as 24 h before.
• Solution 1: culture medium with no compound and 0.2% DMSO. […] This solution should be filtered through a 0.2 µm filter and prewarmed for 30 min at 37°C. • Solution 4: culture medium with double concentrated test compound. […] This solution should be filtered through a 0.2 µm filter and prewarmed for 30 min at 37°C. • Solution 5: control medium with bile salts, prepared by mixing solution 1 and solution 2 in a 1:1 ratio. • Solution 6: culture medium with positive control without bile salts, prepared by mixing solution 1 and solution 3 in a 1:1 ratio. • Solution 7: culture medium with positive control with bile salts, prepared by mixing solution 2 and solution 3 in a 1:1 ratio. • Solution 8: culture medium with test compound without bile salts, prepared by mixing solution 1 and solution 4 in a 1:1 ratio. • Solution 9: culture medium with test compound with bile salts, prepared by mixing solution 2 and solution 4 in a 1:1 ratio.
• 1. On day 5, aspirate the medium and preincubate the cells with solution 1, solution 6 or solution 8 for 2 h. Note: this preincubation step is performed to enable the compounds to interact with the cellular machinery. • 2. After 2 h, aspirate the medium and immediately incubate the cells with solution 1, solution 5, solution 6, solution 7, solution 8 or solution 9 for 22 h.
The urea assay is performed on day 6 or day 7 for 24 h and 48 h incubations, respectively.
• Solutions for the color reagent. […] Note: perform this procedure on ice as this is an exothermic reaction. Wear appropriate protective gear. • ○ Solution B prepared by mixing the thiosemicarbazide solution and the diacetyl monoxime in a 1:1 ratio. • Incubation buffer: HBSS containing 10 mM HEPES, 2 mM glutamine, 10 mM ammonium chloride and 3 mM ornithine, filtered through a 0.2 µm filter and prewarmed at 37°C. • 96-well thermostable plate with aluminum cover slip.
• 1. Aspirate the culture medium. • 2. Wash the wells twice with 250 µL prewarmed incubation buffer. Aspirate the remaining buffer. • 3. Add 125 µL prewarmed incubation buffer to each well and keep the plate at 37°C for 1 h. • 4.

SMILES	Cmax,total [1]	DICI 24 h Mean ([2]; 100 µM test compound)	DICI 48 h Mean ([2]; 100 µM test compound)	DICI-based SM obtained with the ‘original’ LOAEL method 24 h [3]	DICI-based SM obtained with the ‘original’ LOAEL method 48 h [3]	DICI 24 h Mean ([2]; 10 µM test compound)	DICI 48 h Mean ([2]; 10 µM test compound)	DICI 24 h Mean ([2]; 50 µM test compound)	DICI 48 h Mean ([2]; 50 µM test compound)	also measured
CCC(=O)O[C@@H]1CC(=O)O[C@H](C)C/C=C/C=C/[C@H](O)[C@H](C)C[C@H](CC=O)[C@H](O[C@@H]2O[C@H](C)[C@@H](O[C@H]3C[C@@](C)(O)[C@@H](OC(=O)CC)[C@H](C)O3)[C@H](N(C)C)[C@H]2O)[C@H]1OC [Midecamycin, midecamycin]	2 µM	0.71	1.07	50	50					
CCc1nn(CCCN2CCN(c3cccc(Cl)c3)CC2)c(=O)n1CCOc1ccccc1 [Nefazodone, nefazodone]	4.26 µM				7.04	0.69	1.18			DICI 24 h Mean ([2]; 30 µM test compound): 0.77; DICI 48 h Mean ([2]; 30 µM test compound): 0.37; DICI 24 h Mean ([2]; 130 µM test compound): 1.09
CCc1ccc(CCOc2ccc(CC3SC(=O)NC3=O)cc2)nc1 (centres unmarked) [Pioglitazone, pioglitazone]	2.95 µM	1.00		101.69	101.69			1.15		DICI 24 h Mean ([2]; 300 µM test compound): 0.94
Cc1ccc(C(=O)c2cc(O)c(O)c([N+](=O)[O-])c2)cc1 [Tolcapone, tolcapone]	47.6 µM			1.05	1.05	1.05	0.89	0.91	0.79	DICI 24 h Mean ([2]; 5 µM test compound): 0.98; DICI 48 h Mean ([2]; 5 µM test compound): 1.01
Cc1c(C)c2c(c(C)c1O)CCC(C)(COc1ccc(CC3SC(=O)NC3=O)cc1)O2 (centres unmarked) [Troglitazone, troglitazone]	6.39 µM	0.74	0.24	15.65	15.65			1.02	1.00	DICI 24 h Mean ([2]; 20 µM test compound): 0.98; DICI 48 h Mean ([2]; 20 µM test compound): 1.09; DICI 24 h Mean ([2]; 75 µM test compound): 0.78; DICI 48 h Mean ([2]; 75 µM test compound): 0.79
CCOC(=O)CN[C@@H](C(=O)N1CC[C@H]1C(=O)NCc1ccc(/C(N)=N\O)cc1)C1CCCCC1 [Ximelagatran, ximelagatran]	0.3 µM			500	500			0.95	0.93	DICI 24 h Mean ([2]; 25 µM test compound): 0.85; DICI 48 h Mean ([2]; 25 µM test compound): 0.95; DICI 24 h Mean ([2]; 150 µM test compound): 1.02; DICI 48 h Mean ([2]; 150 µM test compound): 1.05
